Data published in PMC8268887, “Peptide/β-Peptoid Hybrids with Ultrashort PEG-Like Moieties: Effects on Hydrophobicity, Antibacterial Activity and Hemolytic Properties” (International Journal of Molecular Sciences, 2021).
Converted amounts (≈) assume the structure as drawn. Read-outs that look alike come from different tables or passages of the source.

Tests used:
[1] = Hydrophobicity by retention in analytical RP-HPLC (% MeCN at peak elution); assay type: physicochemical; settings: for % MeCN at Elution, Aeris Peptide: Phenomenex Aeris Peptide XB-C18 column; for % MeCN at Elution, Aeris Peptide / % MeCN at Elution, Luna Omega / % MeCN at Elution, Supelco Discovery: gradient 0→60% B during 15 min; for % MeCN at Elution, Luna: Phenomenex Luna C18(2) column, RP-HPLC gradient 0→60% B during 15 min, relative hydrophobicity; for % MeCN at Elution, Luna Omega: Phenomenex Luna Omega Polar C18 column; for % MeCN at Elution, Supelco Discovery: Supelco Discovery BIO Wide pore C18 column
Summary of the method: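 Retention times measured on four C18 columns (Luna C18(2), Luna Omega Polar C18, Aeris Peptide XB-C18, Discovery BIO Wide pore) with MeCN–H2O/0.1% TFA, linear 0–60% B over 15 min, 0.8 mL/min, UV 220 nm. % MeCN at elution = 0.95(0.6Rt/15 min)+0.05(1−0.6Rt/15 min).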

[2] = Antiproliferative activity on HepG2 cell line (MTT assay); assay type: cell-based; settings: HepG2 cells; at 1280 µg/mL, value in parenthesis; read-out: HepG2 cell viability at highest concentration tested
Experimental: (§1) Effect of compounds on mammalian cell viability was estimated on the HepG2 cell line ATCC HB-8065. In brief, HepG2 cells were seeded into flat-bottomed 96-well plates at a concentration of 5000 cells per well. Subsequently, the cells were incubated for 24 h in a humidified incubator (5% CO2, 37 °C). Then, the medium was removed, and the cells were incubated for 48 h in a humidified incubator (5% CO2, 37 °C) with peptidomimetics in serial dilutions. Then, an 3-(4,5-dimethylthiazol-2-yl)-2,5-diphenyltetrazolium bromide (MTT) assay was performed as previously described. In brief, after incubation with the test compounds, the culture medium was removed, and then fresh medium with 0.2 mg/mL MTT was added into each well of the plate. The cells were then incubated (3 h, 37 °C, 5% CO2), followed by removal of the medium with MTT and addition of 200 μL dimethyl sulfoxide at once to each sample. Absorbance of MTT was measured using the spectrophotometer TECAN Infinite M1000 at 540 nm. The relative viability was calculated by using the formula: ODtreated cells × 100/ODcontrol cells. The IC50 values are calculated by using the program Graph Pad Prism® 5.0. For all compounds, the test range was 10–1280 μg/mL.

[3] = test system: HepG2 cell line ATCC HB-8065; assay: as above; assay type: cell-based; settings: inhibition of growth of HepG2 cells, 48 h, MTT; highest concentration tested 1280 µg/mL
Experimental: as §1

E. coli NMI 3898/15 = assay type: cell-based, Escherichia coli; settings: NMI 3898/15, 20 h
Summary of the method: (§2)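 Minimum inhibitory concentrations were recorded following 20 h of incubation with shaking at 35 °C (±2 °C), using ~5 × 10^5 CFU/mL in Mg^2+/Ca^2+-supplemented (4 mg/L each) Mueller-Hinton broth.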

E. coli ATCC 25922 = assay type: cell-based, Escherichia coli; settings: ATCC 25922, 20 h
Summary of the method: as §2

E. coli NMI 3371/16 = assay type: cell-based, Escherichia coli; settings: NMI 3371/16, 20 h
Summary of the method: as §2

[4] = test system: P. aeruginosa NMI 7197/19; assay type: cell-based, Pseudomonas aeruginosa; settings: NMI 7197/19, 20 h
Summary of the method: as §2

P. aeruginosa PAO1 = assay type: cell-based, Pseudomonas aeruginosa; settings: PAO1, 20 h
Summary of the method: as §2

K. pneumoniae ATCC 13883 = assay type: cell-based
Summary of the method: as §2

E. faecalis ATCC 29212 = assay type: cell-based; settings: ATCC 29212, 20 h
Summary of the method: as §2

| SMILES | % MeCN at Elution, Aeris Peptide [1] | % MeCN at Elution, Luna [1] | % MeCN at Elution, Luna Omega [1] | % MeCN at Elution, Supelco Discovery [1] | viability at 48 h [2] | HepG2 IC50 [3] | MIC, E. coli NMI 3898/15 (E. coli NMI 3898/15) | MIC, EC (E. coli ATCC 25922) | MIC, E. coli NMI 3371/16 (E. coli NMI 3371/16) | MIC, P. aeruginosa NMI 7197/19 [4] | MIC, PA (P. aeruginosa PAO1) | MIC, KP (K. pneumoniae ATCC 13883; ATCC 13883, 20 h) | MIC, EF (E. faecalis ATCC 29212) | MIC, KP (K. pneumoniae ATCC 13883) | MIC against E. coli (E. coli ATCC 25922) |
| --- | --- | --- | --- | --- | --- | --- | --- | --- | --- | --- | --- | --- | --- | --- | --- |
| NCCCC[C@H](NC(=O)CCN(Cc1ccc(F)cc1)C(=O)[C@H](CCCCN)NC(=O)CCN(Cc1ccc(F)cc1)C(=O)[C@H](CCCCN)NC(=O)COCCOCCNC(=O)CCN(Cc1ccc(F)cc1)C(=O)[C@H](CCCCN)NC(=O)CCN(Cc1ccc(F)cc1)C(=O)[C@H](CCCCN)NC(=O)CCN(Cc1ccc(F)cc1)C(=O)[C@@H](N)CCCCN)C(=O)N(CCC(N)=O)Cc1ccc(F)cc1 [Compound 7, H-[X]3-sPEG2-[X]3-NH2] | 39.4 % MeCN | 41.4 % MeCN | 41.8 % MeCN | 41.6 % MeCN | 10% | 619 µg/mL | 8 µg/mL (≈ 3.99 µM) | 4 µg/mL (≈ 1.99 µM) | 4 µg/mL (≈ 1.99 µM) | >64 µg/mL | 16 to 32 µg/mL | >64 µg/mL |  |  |  |
| NCCCC[C@H](NC(=O)CCN(Cc1ccc(F)cc1)C(=O)[C@H](CCCCN)NC(=O)CCN(Cc1ccc(F)cc1)C(=O)[C@H](CCCCN)NC(=O)CCOCCOCCOCCOCCNC(=O)CCN(Cc1ccc(F)cc1)C(=O)[C@H](CCCCN)NC(=O)CCN(Cc1ccc(F)cc1)C(=O)[C@H](CCCCN)NC(=O)CCN(Cc1ccc(F)cc1)C(=O)[C@@H](N)CCCCN)C(=O)N(CCC(N)=O)Cc1ccc(F)cc1 [Compound 9, H-[X]3-sPEG4-[X]3-NH2] | 39.8 % MeCN | 41.8 % MeCN | 42.3 % MeCN | 42.0 % MeCN | 9% | 693 µg/mL | 16 µg/mL (≈ 7.59 µM) | 4 µg/mL (≈ 1.9 µM) | 4 to 8 µg/mL | >64 µg/mL | 32 µg/mL (≈ 15.2 µM) | >64 µg/mL | >64 µg/mL |  |  |
| NCCCC[C@H](NC(=O)CCN(Cc1ccc(F)cc1)C(=O)[C@H](CCCCN)NC(=O)CCN(Cc1ccc(F)cc1)C(=O)[C@H](CCCCN)NC(=O)COCCN)C(=O)N(CCC(=O)NCCOCC(=O)N[C@@H](CCCCN)C(=O)N(CCC(=O)N[C@@H](CCCCN)C(=O)N(CCC(=O)N[C@@H](CCCCN)C(=O)N(CCC(=O)NCCOCC(N)=O)Cc1ccc(F)cc1)Cc1ccc(F)cc1)Cc1ccc(F)cc1)Cc1ccc(F)cc1 [Compound 11, H-sPEG1-[X]3-sPEG1-[X]3-sPEG1-NH2] | 38.7 % MeCN | 40.8 % MeCN | 41.4 % MeCN | 40.8 % MeCN |  |  | 16 µg/mL (≈ 7.39 µM) | 8 µg/mL (≈ 3.7 µM) | 8 µg/mL (≈ 3.7 µM) | >64 µg/mL | 32 µg/mL (≈ 14.8 µM) | >64 µg/mL | >64 µg/mL |  |  |
| NCCCC[C@H](NC(=O)CCN(Cc1ccc(F)cc1)C(=O)[C@H](CCCCN)NC(=O)CCN(Cc1ccc(F)cc1)C(=O)[C@H](CCCCN)NC(=O)CCN(Cc1ccc(F)cc1)C(=O)[C@H](CCCCN)NC(=O)CCN(Cc1ccc(F)cc1)C(=O)[C@H](CCCCN)NC(=O)CCN(Cc1ccc(F)cc1)C(=O)[C@@H](N)CCCCN)C(=O)N(CCC(N)=O)Cc1ccc(F)cc1 [Compound 1, H-[Lys-βNPhe(4-F)]6-NH2] | 39.4 % MeCN | 41.6 % MeCN | 41.9 % MeCN | 41.7 % MeCN | 0% | 464 µg/mL | 8 µg/mL (≈ 4.3 µM) | 4 to 8 µg/mL | 8 µg/mL (≈ 4.3 µM) | >64 µg/mL | 32 to 64 µg/mL |  | >64 µg/mL | 64–>64 |  |
| NCCCC[C@H](NC(=O)CCN(Cc1ccc(F)cc1)C(=O)[C@H](CCCCN)NC(=O)COCCOCCNC(=O)CCN(Cc1ccc(F)cc1)C(=O)[C@H](CCCCN)NC(=O)CCN(Cc1ccc(F)cc1)C(=O)[C@H](CCCCN)NC(=O)COCCOCCNC(=O)CCN(Cc1ccc(F)cc1)C(=O)[C@H](CCCCN)NC(=O)CCN(Cc1ccc(F)cc1)C(=O)[C@@H](N)CCCCN)C(=O)N(CCC(N)=O)Cc1ccc(F)cc1 [Compound 16, H-[X]2-sPEG2-[X]2-sPEG2-[X]2-NH2] | 39.4 % MeCN | 41.5 % MeCN | 41.9 % MeCN | 41.6 % MeCN | 27% | 687 µg/mL | 8 µg/mL (≈ 3.72 µM) | 2 to 4 µg/mL | 4 µg/mL (≈ 1.86 µM) | >64 µg/mL | 32 to 64 µg/mL | 64 µg/mL (≈ 29.7 µM) | >64 µg/mL |  | 0.7 to 1.4 µM |
| NCCCC[C@H](NC(=O)CCN(Cc1ccc(F)cc1)C(=O)[C@H](CCCCN)NC(=O)CCN(Cc1ccc(F)cc1)C(=O)[C@H](CCCCN)NC(=O)COCCOCCOCCN)C(=O)N(CCC(=O)NCCOCCOCCOCC(=O)N[C@@H](CCCCN)C(=O)N(CCC(=O)N[C@@H](CCCCN)C(=O)N(CCC(=O)N[C@@H](CCCCN)C(=O)N(CCC(=O)NCCOCCOCCOCC(N)=O)Cc1ccc(F)cc1)Cc1ccc(F)cc1)Cc1ccc(F)cc1)Cc1ccc(F)cc1 [Compound 13, H-sPEG3-[X]3-sPEG3-[X]3-sPEG3-NH2] | 39.9 % MeCN | 41.9 % MeCN | 42.8 % MeCN | 42.1 % MeCN |  |  | 16 µg/mL (≈ 6.59 µM) | 8 to 16 µg/mL | 8 µg/mL (≈ 3.29 µM) | >64 µg/mL | >64 µg/mL | >64 µg/mL | >64 µg/mL |  |  |
| NCCCC[C@H](NC(=O)CCN(Cc1ccc(F)cc1)C(=O)[C@H](CCCCN)NC(=O)CCN(Cc1ccc(F)cc1)C(=O)[C@H](CCCCN)NC(=O)COCCOCCN)C(=O)N(CCC(=O)NCCOCCOCC(=O)N[C@@H](CCCCN)C(=O)N(CCC(=O)N[C@@H](CCCCN)C(=O)N(CCC(=O)N[C@@H](CCCCN)C(=O)N(CCC(=O)NCCOCCOCC(N)=O)Cc1ccc(F)cc1)Cc1ccc(F)cc1)Cc1ccc(F)cc1)Cc1ccc(F)cc1 [Compound 12, H-sPEG2-[X]3-sPEG2-[X]3-sPEG2-NH2] | 39.2 % MeCN | 41.3 % MeCN | 42.0 % MeCN | 41.3 % MeCN | 34% | 332 µg/mL | 16 µg/mL (≈ 6.97 µM) | 8 to 16 µg/mL | 8 µg/mL (≈ 3.48 µM) | >64 µg/mL | 16 to 64 µg/mL | >64 µg/mL | >64 µg/mL |  |  |
